Data reported in ChEMBL document CHEMBL1201862, “PubChem BioAssay data set” (2004).
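All cell lines were grown in 96-well plates and treated with compound for 48 hours. Abbreviation: GI50, concentration required for 50% inhibition of growth.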 Calls of active or inactive are those of the source. Rule as the data show it: active = GI50 up to about 1.1 µM and inactive = higher.

Assays:
Test in all cases: NCI anticancer screen, dose series, 48 h
M14 = system: M14
OVCAR-4 = system: OVCAR-4
T47D = system: T47D
CAKI-1 = system: CAKI-1
NCI-H460 = system: NCI-H460
IGROV-1 = system: IGROV-1
MDA-MB-435 = system: MDA-MB-435
COLO 205 = system: COLO 205
UO-31 = system: UO-31
SK-MEL-5 = system: SK-MEL-5
Hs-578T = system: Hs-578T
SR = system: SR
U-251 = system: U-251
SNB-75 = system: SNB-75
SK-MEL-2 = system: SK-MEL-2
MDA-N = system: MDA-N
K562 = system: K562
DU-145 = system: DU-145
HCT-15 = system: HCT-15
HOP-92 = system: HOP-92
SW-620 = system: SW-620
TK-10 = system: TK-10
UACC-257 = system: UACC-257
MDA-MB-231 = system: MDA-MB-231
OVCAR-5 = system: OVCAR-5
PC-3 = system: PC-3
NCI-H226 = system: NCI-H226
HT-29 = system: HT-29
LOX IMVI = system: LOX IMVI
OVCAR-8 = system: OVCAR-8
HCT-116 = system: HCT-116
NCI/ADR-RES = system: NCI/ADR-RES
HL-60 = system: HL-60
NCI-H522 = system: NCI-H522
HOP-62 = system: HOP-62
CCRF-CEM = system: CCRF-CEM
MOLT-4 = system: MOLT-4
OVCAR-3 = system: OVCAR-3
NCI-H23 = system: NCI-H23
SK-OV-3 = system: SK-OV-3
SNB-19 = system: SNB-19
A549 = system: A549
MCF7 = system: MCF7
RPMI-8226 = system: RPMI-8226
HCC 2998 = system: HCC 2998
ACHN = system: ACHN
SF-295 = system: SF-295
SK-MEL-28 = system: SK-MEL-28
SN12C = system: SN12C
SF-539 = system: SF-539
EKVX = system: EKVX
786-0 = system: 786-0
SF-268 = system: SF-268
UACC-62 = system: UACC-62
RXF 393 = system: RXF 393
A498 = system: A498
KM12 = system: KM12
Malme-3M = system: Malme-3M

Measured: GI50

CSCCC(NC(=O)OCc1ccccc1)P(=O)(O)c1ccccc1 (stereo not given)
> 100 µM: HCT-15
inactive: M14 > 100 µM | OVCAR-4 > 100 µM | T47D > 100 µM | CAKI-1 > 100 µM | NCI-H460 > 100 µM | IGROV-1 > 100 µM | MDA-MB-435 > 100 µM | COLO 205 > 100 µM | UO-31 > 100 µM | SK-MEL-5 > 100 µM | Hs-578T > 100 µM | SR > 100 µM | U-251 > 100 µM | SNB-75 > 100 µM | SK-MEL-2 > 100 µM | MDA-N > 100 µM | K562 > 100 µM | DU-145 > 100 µM | HOP-92 > 100 µM | SW-620 > 100 µM | TK-10 > 100 µM | UACC-257 > 100 µM | MDA-MB-231 > 100 µM | OVCAR-5 > 100 µM | PC-3 > 100 µM | NCI-H226 > 100 µM | HT-29 > 100 µM | LOX IMVI > 100 µM | OVCAR-8 > 100 µM | HCT-116 > 100 µM | NCI/ADR-RES > 100 µM | HL-60 > 100 µM | NCI-H522 > 100 µM | HOP-62 > 100 µM | CCRF-CEM > 100 µM | MOLT-4 > 100 µM | OVCAR-3 > 100 µM | NCI-H23 > 100 µM | SK-OV-3 > 100 µM | SNB-19 > 100 µM | A549 > 100 µM | MCF7 > 100 µM | RPMI-8226 > 100 µM | HCC 2998 > 100 µM | ACHN > 100 µM | SF-295 > 100 µM | SK-MEL-28 > 100 µM | SN12C > 100 µM

CC(C)(C)C1=C(Br)C(Br)(C(C)(C)C)OP1(=O)c1ccccc1 (stereo not given)
> 100 µM: HCT-15
inactive: M14 > 100 µM | OVCAR-4 > 100 µM | T47D 31.5 µM | SF-539 > 100 µM | CAKI-1 > 100 µM | NCI-H460 > 100 µM | IGROV-1 > 100 µM | MDA-MB-435 > 100 µM | EKVX > 100 µM | COLO 205 > 100 µM | UO-31 > 100 µM | SK-MEL-5 > 100 µM | Hs-578T > 100 µM | 786-0 > 100 µM | SR > 100 µM | U-251 > 100 µM | SNB-75 > 100 µM | SK-MEL-2 > 100 µM | MDA-N > 100 µM | K562 > 100 µM | DU-145 > 100 µM | HOP-92 > 100 µM | SF-268 > 100 µM | UACC-62 > 100 µM | SW-620 > 100 µM | TK-10 > 100 µM | UACC-257 > 100 µM | OVCAR-5 > 100 µM | PC-3 > 100 µM | HT-29 > 100 µM | LOX IMVI > 100 µM | RXF 393 > 100 µM | OVCAR-8 > 100 µM | HCT-116 > 100 µM | NCI/ADR-RES > 100 µM | HL-60 > 100 µM | A498 > 100 µM | NCI-H522 > 100 µM | HOP-62 > 100 µM | OVCAR-3 > 100 µM | NCI-H23 > 100 µM | SK-OV-3 > 100 µM | SNB-19 > 100 µM | A549 > 100 µM | KM12 > 100 µM | MCF7 > 100 µM | HCC 2998 > 100 µM | Malme-3M > 100 µM | ACHN > 100 µM | SF-295 > 100 µM | SK-MEL-28 > 100 µM | SN12C > 100 µM

CC(C)C1=CC23CCC4C(C)(C(=O)O)CCCC4(C)C2CC1C1C(=O)N(c2ccccc2N2C(=O)C4C5CC6C7(C)CCCC(C)(C(=O)O)C7CCC6(C=C5C(C)C)C4C2=O)C(=O)C13 (stereo not given)
inactive: M14 5.24 µM | OVCAR-4 18 µM | T47D 19.9 µM | SF-539 3.1 µM | MDA-MB-435 3.63 µM | EKVX 3.64 µM | COLO 205 4.57 µM | UO-31 18.2 µM | SK-MEL-5 5.83 µM | Hs-578T 9.55 µM | 786-0 14.4 µM | SR 3.89 µM | U-251 3.16 µM | SK-MEL-2 12.2 µM | MDA-N 5 µM | K562 6.58 µM | DU-145 9.4 µM | HOP-92 17.9 µM | SF-268 3.09 µM | SW-620 12.6 µM | TK-10 13.1 µM | MDA-MB-231 11.6 µM | OVCAR-5 12.2 µM | PC-3 3.23 µM | NCI-H226 12.1 µM | HT-29 3.32 µM | RXF 393 11.3 µM | OVCAR-8 4.52 µM | HCT-116 5.77 µM | HL-60 6.38 µM | A498 2.93 µM | NCI-H522 8.73 µM | HOP-62 4.67 µM | CCRF-CEM 4.39 µM | MOLT-4 2.85 µM | OVCAR-3 10.9 µM | NCI-H23 2.47 µM | SNB-19 4.79 µM | A549 14 µM | KM12 3.09 µM | MCF7 3.66 µM | RPMI-8226 7.64 µM | HCC 2998 4.01 µM | Malme-3M 13.1 µM | ACHN 10.2 µM | SK-MEL-28 7.89 µM | SN12C 9.06 µM
14.3 µM: HCT-15
